Data set [1] relates to host versus graft reaction in rats. Kind of data set: Inhibitory effect on host versus graft (HvG) reaction in rats (popliteal lymph node weight). The conditions noted are these: administered daily for 4 days after the injection with cells intravenously or orally, difference of right and left popliteal lymph node weights. Type of data set: in vivo, rat. On the procedure: (§1) The spleen is removed from male WKAH rats at ages of 4 to 5 weeks old and is used to obtain a single cell suspension of spleen cells using RPMI 1640 medium (containing kanamycin sulfate at […], penicillin G potassium at 100 unit/ml, N-2-hydroxyethylpiperazine-N-2-ethane sulfate at 10 mM, 0.1% sodium bicarbonate, and L-glutamine at 2 mM). After the treatment of lysing of red blood cells, the cells are washed at three times and are adjusted at 5×10^7 cells/ml with physiological saline. By injection into right hind foot pad of 100 ul of spleen cell suspension, the host versus graft reaction (HvG reaction) are induced. After 4 days of the injection with cells, both of right and left popliteal lymph nodes are removed and the weight of them are measured. The test compounds are examined by difference of the lymph node weights between right and left as a indicator of HvG reaction. In addition, after 4 days of the injection with cells, blood is obtained from tail vein of the rats and the number of peripheral white blood cells are measured using automatic hemocytometer for animal (MEK-5158, Nihonkouden Co. Ltd.). Test compounds are administered daily for 4 days after the injection with cells intravenously or orally.
(§2) The value in the table represents minimum effective dose (mg/kg).

Data set [2] deals with peripheral white blood cells. The data set is described as follows: Reduction of peripheral white blood cells in rats of the HvG reaction test. The data set is classed as in vivo, rat. Particulars: for Reduction of peripheral white blood cells, minimum effective dose: administered daily for 4 days intravenously or orally, blood from tail vein 4 days after the injection with cells; for reduction of peripheral white blood cell number relative to immunosuppressive dose (assessment in words): conclusion drawn from Table 1 (HvG test). On the procedure:
as §1, §2

Several values for one entry are separate records, joined by “and”; a condition that tells them apart may be missing. Identical values can stand only once.

As a reminder, the melting point is the temperature, or range, at which the solid turns liquid. `CCCCCCCOc1ccc(CCC(C)(CO)NC(=O)c2cc([N+](=O)[O-])cc([N+](=O)[O-])c2)cc1` (racemic) returned a melting point of 150 to 151 °C.

As for `CCCCCCCOc1ccc(CCC(CO)(CCC)NC(=O)c2cc([N+](=O)[O-])cc([N+](=O)[O-])c2)cc1` (racemic) [Working Example 29], the melting point was 114 to 115 °C and 115 to 116 °C.

Turning to `CCCCCCCOc1ccc(CCC(C)(N)CO)cc1.Cl` (stereo not drawn) [Compound of experiment 1, 2-Amino-4-(4-heptyloxyphenyl)-2-methylbutanol Hydrochloride], in data set [1], the “Inhibitory effect on HvG reaction, minimum effective dose” value (from here on “Inhibitory effect on HvG reaction”) is reported as 0.03 mg/kg. Besides, in data set [2], the “Reduction of peripheral white blood cells, minimum effective dose” value (from here on “Reduction … minimum effective dose”) worked out at 0.03 mg/kg and the “reduction of peripheral white blood cell number relative to immunosuppressive dose (assessment in words)” value is on record as “weakness of reduction of peripheral white blood cell number”.

With `CCCCCCCCCc1ccc(CCCC(N)(CO)CCO)cc1` (stereo not drawn) [Compound of experiment 3, 2-Amino-2-[3-(4-nonylphenyl)propyl]butane-1,4-diol], the melting point was 71 to 73 °C. Further, the “Inhibitory effect on HvG reaction” value in data set [1] amounted to 0.03 mg/kg. In data set [2], the “Reduction … minimum effective dose” value is given as 0.03 mg/kg and the “reduction of peripheral white blood cell number relative to immunosuppressive dose (assessment in words)” value is “weakness of reduction of peripheral white blood cell number”.

Turning to `CCCCCCCOc1ccc(CCC(N)(CC)CO)cc1.Cl` (stereo not drawn) [Compound of experiment 27, 2-Amino-2-ethyl-4-(4-heptyloxyphenyl)butanol Hydrochloride], the melting point fell in the range of 108 to 110 °C. Further, in data set [1], the “Inhibitory effect on HvG reaction” value was 0.03 mg/kg. For the same compound, in data set [2], the “Reduction … minimum effective dose” value is recorded as 0.03 mg/kg and the “reduction of peripheral white blood cell number relative to immunosuppressive dose (assessment in words)” value is reported as “weakness of reduction of peripheral white blood cell number”.

`CCCCCCCOc1ccc(CC[C@@](N)(CO)CCC)cc1.Cl` [Compound of experiment 31, (R)-2-amino-2-[2-(4-heptyloxyphenyl)ethyl]pentanol Hydrochloride]: in data set [1], the “Inhibitory effect on HvG reaction” value is listed as less than 0.3 mg/kg. Also, in data set [2], the “Reduction … minimum effective dose” value was determined as 3 mg/kg and the “reduction of peripheral white blood cell number relative to immunosuppressive dose (assessment in words)” value is on record as “weakness of reduction of peripheral white blood cell number”.

For the compound `CCCCCCCOc1ccc(CCC(N)(CO)C(C)C)cc1.CCCCCCCOc1ccc(CCC(N)(CO)C(C)C)cc1.Cl.Cl.O` (stereo not drawn) [Compound of experiment 60, 2-Amino-2-isopropyl-4-(4-heptyloxyphenyl)butanol Hydrochloride 1/2 Hydrate], the “Inhibitory effect on HvG reaction” value in data set [1] turned out to be 1 mg/kg. In addition, in data set [2], the “Reduction … minimum effective dose” value was 3 mg/kg and the “reduction of peripheral white blood cell number relative to immunosuppressive dose (assessment in words)” value was “weakness of reduction of peripheral white blood cell number”.

With `CCCCCCCOc1ccc(CCC(C)(N)CO)cc1OC` (stereo not drawn) [Compound of experiment 66, 2-Amino-4-(4-heptyloxy-3-methoxyphenyl)-2-methylbutanol 1/10 Hydrate], the “Inhibitory effect on HvG reaction” value in data set [1] came out at 3 mg/kg. In data set [2], the “Reduction … minimum effective dose” value amounted to 3 mg/kg and the “reduction of peripheral white blood cell number relative to immunosuppressive dose (assessment in words)” value is reported as “weakness of reduction of peripheral white blood cell number”.

For `CCCCCCCCc1ccc(CCC(N)(CO)CO)cc1.Cl` [FTY720, 2-amino-2-[2-(4-octylphenyl)ethyl]propane-1,3-diol hydrochloride, reference compound], the “Inhibitory effect on HvG reaction” value in data set [1] turned out to be 0.1 mg/kg. Also, in data set [2], the “Reduction … minimum effective dose” value is on record as 0.03 mg/kg.

For the compound `CCCCCCCc1ccc(CCCC(N)(CO)CCO)cc1` (stereo not drawn) [Working Example 4, 2-Amino-2-[3-(4-heptylphenyl)propyl]butane-1,4-diol], the melting point was 68 to 71 °C.

For the compound `CCCCCCCCCCCCc1ccc(CCC(CCOC(C)=O)(COC(C)=O)NC(C)=O)cc1` (stereo not drawn) [Working Example 16, 3-Acetamido-3-acetoxymethyl-5-(4-dodecylphenyl)pentyl Acetate], the melting point was 75 to 77 °C.

For `CCCCCCCOc1ccc(CCC(CO)(CCC)NC(=O)c2cc([N+](=O)[O-])cc([N+](=O)[O-])c2)cc1` (stereo not drawn) [Working Example 32], the melting point lay within 90 to 91 °C.

Compound `CCCCCCCC(=O)c1ccc(CCC(CCOC(C)=O)(CCOC(C)=O)NC(C)=O)cc1` [Working Example 100, 3-Acetamido-5-acetoxy-3-[2-(4-octanoylphenyl)ethyl]pentyl Acetate] came in with a melting point of 83 to 86 °C.

As for `CCCCCCCOc1ccc(CCC(CO)(CCO)NC(=O)c2cc([N+](=O)[O-])cc([N+](=O)[O-])c2)cc1` (stereo not drawn) [Working Example 115], the melting point was 78 to 79 °C.

Turning to `CCCCCCCOc1ccc(CCC(CO)(CCO)NC(=O)c2cc([N+](=O)[O-])cc([N+](=O)[O-])c2)cc1` (stereo not drawn) [Working Example 116], the melting point was 77 to 79 °C.
